According to PubChem BioAssay (NCI):
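Values below derive from 48-hour exposures of cells grown in 96-well plates, with endpoints linearly interpolated between the two concentrations bracketing the appropriate inhibition level. Here, GI50 denotes the concentration required for 50% inhibition of growth. TGI marks complete inhibition of growth.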

Columns and labels:
Experiment in all cases: inhibition of tumour cell growth, NCI panel, 48 h
786-0 renal = system: 786-0 renal
A498 renal = system: A498 renal
A549 NSCLC = system: A549 NSCLC
ACHN renal = system: ACHN renal
CAKI-1 renal = system: CAKI-1 renal
CCRF-CEM leukemia = system: CCRF-CEM leukemia
DLD-1 colon = system: DLD-1 colon
DMS 273 small cell lung = system: DMS 273 small cell lung
EKVX NSCLC = system: EKVX NSCLC
HCC-2998 colon = system: HCC-2998 colon
HCT-116 colon = system: HCT-116 colon
HCT-15 colon = system: HCT-15 colon
HL-60(TB) leukemia = system: HL-60(TB) leukemia
HOP-62 NSCLC = system: HOP-62 NSCLC
HOP-92 NSCLC = system: HOP-92 NSCLC
HT29 colon = system: HT29 colon
IGROV1 ovarian = system: IGROV1 ovarian
K-562 leukemia = system: K-562 leukemia
KM12 colon = system: KM12 colon
KM20L2 colon = system: KM20L2 colon
LOX IMVI melanoma = system: LOX IMVI melanoma
M14 melanoma = system: M14 melanoma
MALME-3M melanoma = system: MALME-3M melanoma
MOLT-4 leukemia = system: MOLT-4 leukemia
NCI-H226 lung = system: NCI-H226 lung
NCI-H23 lung = system: NCI-H23 lung
NCI-H460 lung = system: NCI-H460 lung
NCI-H522 lung = system: NCI-H522 lung
OVCAR-3 ovarian = system: OVCAR-3 ovarian
OVCAR-4 ovarian = system: OVCAR-4 ovarian
OVCAR-5 ovarian = system: OVCAR-5 ovarian
OVCAR-8 ovarian = system: OVCAR-8 ovarian
RPMI-8226 leukemia = system: RPMI-8226 leukemia
RXF 393 renal = system: RXF 393 renal
SF-268 CNS = system: SF-268 CNS
SF-295 CNS = system: SF-295 CNS
SF-539 CNS = system: SF-539 CNS
SK-MEL-2 melanoma = system: SK-MEL-2 melanoma
SK-MEL-28 melanoma = system: SK-MEL-28 melanoma
SK-MEL-5 melanoma = system: SK-MEL-5 melanoma
SK-OV-3 ovarian = system: SK-OV-3 ovarian
SN12C renal = system: SN12C renal
SNB-19 CNS = system: SNB-19 CNS
SNB-75 CNS = system: SNB-75 CNS
SNB-78 CNS = system: SNB-78 CNS
SW-620 colon = system: SW-620 colon
TK-10 renal = system: TK-10 renal
U251 CNS = system: U251 CNS
UACC-257 melanoma = system: UACC-257 melanoma
UACC-62 melanoma = system: UACC-62 melanoma
UO-31 renal = system: UO-31 renal
BT-549 breast = system: BT-549 breast
COLO 205 colon = system: COLO 205 colon
DU-145 prostate = system: DU-145 prostate
HS 578T breast = system: HS 578T breast
MCF7 breast = system: MCF7 breast
MDA-MB-231 breast = system: MDA-MB-231 breast
MDA-MB-435 = system: MDA-MB-435
MDA-N = system: MDA-N
NCI/ADR-RES ovarian = system: NCI/ADR-RES ovarian
PC-3 prostate = system: PC-3 prostate
SR leukemia = system: SR leukemia
T-47D breast = system: T-47D breast
DMS 114 small cell lung = system: DMS 114 small cell lung
HOP-18 NSCLC = system: HOP-18 NSCLC
LXFL 529 NSCLC = system: LXFL 529 NSCLC
M19-MEL melanoma = system: M19-MEL melanoma

Compound `O=c1cccccc1[O-].O=c1cccccc1[O-].O=c1cccccc1[O-].[Eu+3]` has a TGI (786-0 renal) of over 100 µM, a GI50 (A498 renal) of 78.4 µM and a TGI (A498 renal) of over 100 µM. The TGI (A549 NSCLC) was over 100 µM, the TGI (ACHN renal) was over 100 µM and the TGI (CAKI-1 renal) was over 100 µM. It also gave a TGI (CCRF-CEM leukemia) of 78 µM, a GI50 (DLD-1 colon) of 24 µM and a TGI (DLD-1 colon) of over 100 µM. For the same compound, the GI50 (DMS 273 small cell lung) was 16.9 µM, the TGI (DMS 273 small cell lung) was over 100 µM and the TGI (EKVX NSCLC) was over 100 µM. It also gave a TGI (HCC-2998 colon) of over 100 µM, a TGI (HCT-116 colon) of 76.7 µM and a TGI (HCT-15 colon) of over 100 µM. The TGI (HL-60(TB) leukemia) was 74.5 µM, the GI50 (HOP-62 NSCLC) was 24.9 µM and the TGI (HOP-62 NSCLC) was 90.2 µM. The TGI (HOP-92 NSCLC) was over 100 µM, the TGI (HT29 colon) was over 100 µM and the TGI (IGROV1 ovarian) was over 100 µM. It also gave a TGI (K-562 leukemia) of over 100 µM, a TGI (KM12 colon) of over 100 µM and a GI50 (KM20L2 colon) of 27.2 µM. The TGI (KM20L2 colon) was over 100 µM, the TGI (LOX IMVI melanoma) was over 100 µM and the TGI (M14 melanoma) was over 100 µM. It also gave a TGI (MALME-3M melanoma) of over 100 µM, a TGI (MOLT-4 leukemia) of over 100 µM and a TGI (NCI-H226 lung) of over 100 µM. The TGI (NCI-H23 lung) was over 100 µM, the TGI (NCI-H460 lung) was over 100 µM and the TGI (NCI-H522 lung) was 54.8 µM. It also gave a TGI (OVCAR-3 ovarian) of 48.1 µM, a TGI (OVCAR-4 ovarian) of over 100 µM and a TGI (OVCAR-5 ovarian) of over 100 µM. It also gave a TGI (OVCAR-8 ovarian) of 63.8 µM, a TGI (RPMI-8226 leukemia) of over 100 µM and a TGI (RXF 393 renal) of 73.9 µM. The TGI (SF-268 CNS) was over 100 µM, the TGI (SF-295 CNS) was over 100 µM and the GI50 (SF-539 CNS) was 30.2 µM. It also gave a TGI (SF-539 CNS) of over 100 µM, a TGI (SK-MEL-2 melanoma) of over 100 µM and a TGI (SK-MEL-28 melanoma) of over 100 µM. The TGI (SK-MEL-5 melanoma) was over 100 µM, the TGI (SK-OV-3 ovarian) was over 100 µM and the GI50 (SN12C renal) was 56.6 µM. It also gave a TGI (SN12C renal) of over 100 µM, a TGI (SNB-19 CNS) of over 100 µM and a TGI (SNB-75 CNS) of 79 µM. For the same compound, the GI50 (SNB-78 CNS) was 20.1 µM, the TGI (SNB-78 CNS) was over 100 µM and the TGI (SW-620 colon) was over 100 µM. For the same compound, the TGI (TK-10 renal) was over 100 µM, the GI50 (U251 CNS) was 26.9 µM and the TGI (U251 CNS) was over 100 µM. For the same compound, the TGI (UACC-257 melanoma) was 99.6 µM, the TGI (UACC-62 melanoma) was over 100 µM and the TGI (UO-31 renal) was over 100 µM.
`Cc1c(C(=O)c2ccc(N)c3ccccc23)c2ccccc2n1CCN1CCOCC1` was tested, and the TGI (786-0 renal) was 80.6 µM, the TGI (A498 renal) was 81.8 µM and the TGI (A549 NSCLC) was 99.1 µM. The TGI (ACHN renal) was over 100 µM, the TGI (BT-549 breast) was 80.1 µM and the TGI (CAKI-1 renal) was over 100 µM. It also gave a TGI (CCRF-CEM leukemia) of over 100 µM, a TGI (COLO 205 colon) of 86.9 µM and a TGI (DU-145 prostate) of over 95.2 µM. It also gave a TGI (EKVX NSCLC) of over 92.2 µM, a TGI (HCC-2998 colon) of 59.9 µM and a TGI (HCT-116 colon) of 48.6 µM. For the same compound, the TGI (HCT-15 colon) was over 95.7 µM, the TGI (HL-60(TB) leukemia) was 58.1 µM and the TGI (HOP-62 NSCLC) was over 90.1 µM. The TGI (HOP-92 NSCLC) was 75.6 µM, the TGI (HS 578T breast) was 48.4 µM and the TGI (HT29 colon) was 72.5 µM. The TGI (IGROV1 ovarian) was over 89.6 µM, the TGI (K-562 leukemia) was over 90.6 µM and the TGI (KM12 colon) was 49.1 µM. For the same compound, the TGI (LOX IMVI melanoma) was 59 µM, the TGI (M14 melanoma) was 63.7 µM and the TGI (MALME-3M melanoma) was 61.8 µM. It also gave a TGI (MCF7 breast) of 70.9 µM, a TGI (MDA-MB-231 breast) of over 100 µM and a TGI (MDA-MB-435) of 37 µM. The TGI (MDA-N) was 55 µM, the TGI (MOLT-4 leukemia) was over 67.7 µM and the TGI (NCI-H226 lung) was over 100 µM. The TGI (NCI-H23 lung) was over 100 µM, the TGI (NCI-H460 lung) was over 77.1 µM and the TGI (NCI-H522 lung) was 58.4 µM. The TGI (NCI/ADR-RES ovarian) was over 91.5 µM, the TGI (OVCAR-3 ovarian) was 41.3 µM and the TGI (OVCAR-4 ovarian) was over 47.8 µM. It also gave a TGI (OVCAR-5 ovarian) of 98.2 µM, a TGI (OVCAR-8 ovarian) of over 94.5 µM and a TGI (PC-3 prostate) of over 100 µM. The TGI (RPMI-8226 leukemia) was over 61.1 µM, the TGI (RXF 393 renal) was 67.7 µM and the TGI (SF-268 CNS) was over 88.5 µM. The TGI (SF-295 CNS) was 48.5 µM, the TGI (SF-539 CNS) was 50.8 µM and the TGI (SK-MEL-2 melanoma) was 47.2 µM. It also gave a TGI (SK-MEL-28 melanoma) of over 100 µM, a TGI (SK-MEL-5 melanoma) of 33.7 µM and a TGI (SK-OV-3 ovarian) of over 100 µM. The TGI (SN12C renal) was over 94.1 µM, the TGI (SNB-19 CNS) was over 100 µM and the TGI (SNB-75 CNS) was 47.4 µM. For the same compound, the TGI (SR leukemia) was over 85.3 µM, the TGI (SW-620 colon) was over 100 µM and the TGI (T-47D breast) was over 100 µM. It also gave a TGI (TK-10 renal) of over 82.2 µM, a TGI (U251 CNS) of over 95.6 µM and a TGI (UACC-257 melanoma) of 58.5 µM. For the same compound, the TGI (UACC-62 melanoma) was 40.6 µM and the TGI (UO-31 renal) was 86.6 µM.
In the case of `O=C(NNC(=S)Nc1ccccc1)c1nsc2ccccc12`, the TGI (A549 NSCLC) is reported as over 100 µM, the TGI (ACHN renal) is reported as over 100 µM and the TGI (CCRF-CEM leukemia) is reported as 49 µM. For the same compound, the TGI (COLO 205 colon) was over 100 µM, the TGI (DMS 114 small cell lung) was 70 µM and the TGI (DMS 273 small cell lung) was 69.8 µM. It also gave a TGI (EKVX NSCLC) of over 100 µM, a TGI (HCC-2998 colon) of over 100 µM and a TGI (HCT-116 colon) of over 100 µM. It also gave a TGI (HCT-15 colon) of over 100 µM, a TGI (HL-60(TB) leukemia) of 53.8 µM and a TGI (HOP-18 NSCLC) of 41.4 µM. For the same compound, the TGI (HOP-62 NSCLC) was over 100 µM, the TGI (HOP-92 NSCLC) was 90.5 µM and the TGI (HT29 colon) was over 100 µM. The TGI (IGROV1 ovarian) was over 100 µM, the TGI (K-562 leukemia) was over 100 µM and the TGI (KM12 colon) was over 100 µM. The TGI (KM20L2 colon) was over 100 µM, the TGI (LOX IMVI melanoma) was over 100 µM and the TGI (LXFL 529 NSCLC) was over 100 µM. It also gave a TGI (M14 melanoma) of 32.9 µM, a TGI (M19-MEL melanoma) of over 100 µM and a TGI (MOLT-4 leukemia) of 98.5 µM. For the same compound, the TGI (NCI-H23 lung) was over 100 µM, the TGI (NCI-H460 lung) was over 100 µM and the TGI (OVCAR-3 ovarian) was 35.1 µM. It also gave a TGI (OVCAR-4 ovarian) of over 100 µM, a TGI (OVCAR-5 ovarian) of over 100 µM and a TGI (OVCAR-8 ovarian) of over 100 µM. For the same compound, the TGI (RPMI-8226 leukemia) was over 100 µM, the TGI (RXF 393 renal) was over 100 µM and the TGI (SF-268 CNS) was over 100 µM. For the same compound, the TGI (SF-539 CNS) was 97.8 µM, the TGI (SK-MEL-2 melanoma) was over 100 µM and the TGI (SK-MEL-28 melanoma) was over 100 µM. The TGI (SK-MEL-5 melanoma) was over 100 µM, the TGI (SN12C renal) was over 100 µM and the TGI (SNB-19 CNS) was over 100 µM. It also gave a TGI (SNB-75 CNS) of 65.6 µM, a TGI (SNB-78 CNS) of over 100 µM and a TGI (SR leukemia) of 91.1 µM. The TGI (SW-620 colon) was over 100 µM, the TGI (TK-10 renal) was over 100 µM and the TGI (U251 CNS) was over 100 µM. The TGI (UACC-257 melanoma) was over 100 µM, the TGI (UACC-62 melanoma) was 85.7 µM and the TGI (UO-31 renal) was 75.4 µM.
